SMILES strings stand for the structures.

Data set [1] relates to prostate cancer cell line DU145. Conditions: DU145 in vitro; cited from earlier work.
The subject of data set [2] is PI (3) K/Akt-signal path in MCF-7 cells. Conditions: MCF-7 cells in vitro; cited from earlier work.
In data set [3] the test system is foreskin melanocytes (HEM1). Put plainly: MUH proliferation assay, melanocytes. The format is cell-based. The note with it: 6-PN, 8-PN at higher concentrations (0.1 μM to 100 μM tested); TSA, SAHA 100 μM. On the procedure:
FIG. 5: real time cell monitoring of BLM and SK-MEL-28 melanoma cells treated with 6-PN and 8-PN. (A) BML and SK-MEL-28 cells were treated 24 hours after seeding with different concentrations of 6-PN and 8-PN (20 μM, 50 μM and 100 μM) over a 104 hour time period. The cellular impedance was measured over the entire observation time using the xCELLigence™ SP system and is depicted by the cell index (CI). All CI-values were normalized shortly before the treatment started. […] As a positive control, Triton X-100 0.1% was used to induce cell death. Shown are the mean±SD of three independent experiments, each performed in triplicates (B, C). […] Shown are the mean±SD; the experiments were performed in quadruplicates. (D) The MUH proliferation assay was repeated unter the same treatment conditions on primary human fibroblasts (FF868) and melanocytes (HEM1).
The cells were seeded in triplicates in 96-well plates at a density of 2,500 cells per well in 50 μl medium (5×10^4 cells per milliliter). After 24 hours, the medium was replaced by medium containing 6-PN, 8-PN (dissolved in DMSO), TSA (dissolved in EtOH) or SAHA (dissolved in DMSO) at the concentrations to be tested with or without the addition of the necrosis inhibitor IM-54 at 5 μM (Calbiochem, Darmstadt, Germany). Cells treated with culture medium without or with DMSO served as controls. The assay was started following an incubation of 24 hours. […] Plates were incubated at 37° C. for 1 hour and measured in a Fluoroskan II (Lab Systems, Helsinki, Finland) with a […]. The intensity of fluorescence indicates the number of viable cells in the wells.
Next it was asked whether the PNs also influence the proliferation of benign cells. To this end, human fibroblasts (FF) and foreskin melanocytes (HEM1) were treated with the same concentrations of 6-PN and 8-PN, and proliferation was assessed using the proliferation assay as described above.

In data set [4] the test system is human HDAC enzymes HDAC1-HDAC11. Nature of the data set: HDAC inhibition profiling (Fluor de Lys). The format is biochemical. Conditions: 100 μM, HDAC1-HDAC11, 1% DMSO. Here is the method: FIG. 2: In silico docking analysis with 6-PN and 8-PN illustrates the inhibitory potential on human-derived HDACs of class I and II. (A) Results of the in silico docking analysis of 6-PN and 8-PN with crystal structures of HDAC2 (class I) and HDAC4 (class II). […] Both molecules are predicted to interact with the zinc ion as well as other residues of the catalytic center. Docking analyses of 6-PN and 8-PN in the individual HDAC binding pockets were performed using GOLD (version 4.1.2) and MOE (version 2009.10). (B) Overall HDAC inhibition in cellular extracts of the human cell line HeLa by increasing concentrations of 6-PN and 8-PN (5 μM, 10 μM, 20 μM, 50 μM and 100 μM). As reference inhibitor 100 μM SAHA was used. Every concentration was tested three times in triplicates. Shown are the mean±SD. (C) Specific fluometric profiling assay using recombinant human HDACs of classes I, II and IV. Specific inhibition values were generated for the treatment with 100 μM 6-PN and 8-PN. […]
The human HDAC profiling assay was performed on the basis of the Fluor de Lys™ technology by Scottish Biomedical, Glasgow, United Kingdom. The percentage inhibition values of 100 μM of 6-PN and 100 μM of 8-PN against the human HDAC enzymes HDAC1, HDAC2, HDAC3, HDAC4, HDAC5, HDAC6, HDAC7, HDAC8, HDAC9, HDAC10, and HDAC11 were determined. […]

A further data set concerns BLM melanoma cells. Put plainly: Real time cell monitoring assay (xCELLigence), BLM. It is filed as cell-based, human. Conditions: BLM, 20, 50 and 100 μM, 104 hours, vs. control. On the procedure:
FIG. 5: real time cell monitoring of BLM and SK-MEL-28 melanoma cells treated with 6-PN and 8-PN. (A) BML and SK-MEL-28 cells were treated 24 hours after seeding with different concentrations of 6-PN and 8-PN (20 μM, 50 μM and 100 μM) over a 104 hour time period. The cellular impedance was measured over the entire observation time using the xCELLigence™ SP system and is depicted by the cell index (CI). All CI-values were normalized shortly before the treatment started. […] As a positive control, Triton X-100 0.1% was used to induce cell death. Shown are the mean±SD of three independent experiments, each performed in triplicates (B, C). […]
The human melanoma cell lines BLM and SK-MEL-28 (2.5×10^3 cells/well) were seeded in 96 well plates. The cells were treated after 24 hours with different concentrations of 6-PN or 8-PN (20 μM, 50 μM and 100 μM) and monitored by measurements of electrical impedance in 15 minutes intervals for an overall time span of in total 104 hours using the xCELLigencer® SP Systems (Roche Applied Science). The cell index values were calculated using the RTCA software (1.0.0.0805). […]
The human metastatic melanoma cell lines BLM and SK-MEL-28 were treated once with rising concentrations of 6-PN or 8-PN (20 μM, 50 μM and 100 μM) and monitored continuously for an overall time span of 104 hours using a real time monitoring assay (FIG. 5A). […]

A further data set concerns MCF7-cells. Conditions: cited from earlier work.

For the compound `CC(C)=CCc1c(O)cc(O)c2c1OC(c1ccc(O)cc1)CC2=O` (stereo not drawn) [8-PN, 5,7-Dihydroxy-2-(4-hydroxy-phenyl)-8-(3-methyl-but-2-enyl)-chroman-4-one], in data set [1], the antiproliferative effects entry is “antiproliferative effects”. The “activation of the PI (3) K/Akt-signal path” value in data set [2] is “directly inhibits”. In addition, in data set [3], the melanocyte proliferation entry is listed as “markedly decreased”. Moreover, the “inhibition of HDAC activity on all tested human HDACs” value in data set [4] was “strongly inhibited”. Besides, the “normalized cell index (CI)” value in the data set with BLM melanoma cells is “descended over time”. Moreover, the apoptosis entry with MCF7-cells is recorded as “induces the apoptosis”.

The values are drawn from patent publication US20160067211A1, “PHARMACEUTICAL COMPOSITION” (Eberhard Karls Universitaet Tuebingen Medizinische Fakultaet, priority 2013, published 2016).
